ChEMBL document CHEMBL3872258, “Challenges in the development of an M4 PAM in vivo tool compound: The discovery of VU0467154 and unexpected DMPK profiles of close analogs” (Bioorg Med Chem Lett, 2017)

How the values were obtained:
[1] = biological target: Voltage-dependent L-type calcium channel subunit alpha-1C (Homo sapiens, UniProt Q13936); assay: Binding affinity to human Cav1.2 by radio-ligand binding assay
[2] = biological target: T1, Muscarinic acetylcholine receptor M4 (Rattus norvegicus, UniProt P08485); assay: Positive allosteric modulation of rat M4 receptor expressed in CHO cells co-expressing Gqui5 by calcium mobilization assay; type: functional, cell-based
T1 sequence (P08485 whole entry): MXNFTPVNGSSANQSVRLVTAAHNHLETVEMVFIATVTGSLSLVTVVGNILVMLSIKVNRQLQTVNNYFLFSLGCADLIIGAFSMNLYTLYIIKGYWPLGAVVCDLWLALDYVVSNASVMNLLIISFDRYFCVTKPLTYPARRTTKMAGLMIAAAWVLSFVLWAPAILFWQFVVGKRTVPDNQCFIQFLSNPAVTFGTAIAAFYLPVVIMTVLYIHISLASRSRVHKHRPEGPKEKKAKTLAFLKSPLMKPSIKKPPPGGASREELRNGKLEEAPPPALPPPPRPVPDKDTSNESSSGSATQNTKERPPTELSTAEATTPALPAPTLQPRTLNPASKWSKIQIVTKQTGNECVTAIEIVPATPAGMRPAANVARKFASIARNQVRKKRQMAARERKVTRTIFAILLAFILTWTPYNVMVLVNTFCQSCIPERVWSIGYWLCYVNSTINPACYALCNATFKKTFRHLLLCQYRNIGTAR

[3] = Binding affinity to rat brain GABA receptor by radio-ligand binding assay
[4] = biological target: Growth hormone secretagogue receptor type 1 (Homo sapiens, UniProt Q92847); assay: Inhibition of ghrelin receptor (unknown origin) by radioligand binding assay
[5] = Inhibition of human adenosine transporter assessed as reduction in [3H]-adenosine uptake

Sequence of Growth hormone secretagogue receptor type 1 (Q92847 whole entry): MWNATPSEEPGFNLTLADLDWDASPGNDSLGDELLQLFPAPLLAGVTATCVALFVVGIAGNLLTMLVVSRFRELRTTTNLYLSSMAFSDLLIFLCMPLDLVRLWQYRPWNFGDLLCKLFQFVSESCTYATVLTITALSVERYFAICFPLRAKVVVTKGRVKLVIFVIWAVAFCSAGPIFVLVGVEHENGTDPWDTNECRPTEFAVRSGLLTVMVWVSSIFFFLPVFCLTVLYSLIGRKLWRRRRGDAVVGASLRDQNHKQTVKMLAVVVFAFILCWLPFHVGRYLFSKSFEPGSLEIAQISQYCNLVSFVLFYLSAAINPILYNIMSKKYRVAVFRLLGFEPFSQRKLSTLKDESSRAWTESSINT
Sequence of Voltage-dependent L-type calcium channel subunit alpha-1C (Q13936 whole entry): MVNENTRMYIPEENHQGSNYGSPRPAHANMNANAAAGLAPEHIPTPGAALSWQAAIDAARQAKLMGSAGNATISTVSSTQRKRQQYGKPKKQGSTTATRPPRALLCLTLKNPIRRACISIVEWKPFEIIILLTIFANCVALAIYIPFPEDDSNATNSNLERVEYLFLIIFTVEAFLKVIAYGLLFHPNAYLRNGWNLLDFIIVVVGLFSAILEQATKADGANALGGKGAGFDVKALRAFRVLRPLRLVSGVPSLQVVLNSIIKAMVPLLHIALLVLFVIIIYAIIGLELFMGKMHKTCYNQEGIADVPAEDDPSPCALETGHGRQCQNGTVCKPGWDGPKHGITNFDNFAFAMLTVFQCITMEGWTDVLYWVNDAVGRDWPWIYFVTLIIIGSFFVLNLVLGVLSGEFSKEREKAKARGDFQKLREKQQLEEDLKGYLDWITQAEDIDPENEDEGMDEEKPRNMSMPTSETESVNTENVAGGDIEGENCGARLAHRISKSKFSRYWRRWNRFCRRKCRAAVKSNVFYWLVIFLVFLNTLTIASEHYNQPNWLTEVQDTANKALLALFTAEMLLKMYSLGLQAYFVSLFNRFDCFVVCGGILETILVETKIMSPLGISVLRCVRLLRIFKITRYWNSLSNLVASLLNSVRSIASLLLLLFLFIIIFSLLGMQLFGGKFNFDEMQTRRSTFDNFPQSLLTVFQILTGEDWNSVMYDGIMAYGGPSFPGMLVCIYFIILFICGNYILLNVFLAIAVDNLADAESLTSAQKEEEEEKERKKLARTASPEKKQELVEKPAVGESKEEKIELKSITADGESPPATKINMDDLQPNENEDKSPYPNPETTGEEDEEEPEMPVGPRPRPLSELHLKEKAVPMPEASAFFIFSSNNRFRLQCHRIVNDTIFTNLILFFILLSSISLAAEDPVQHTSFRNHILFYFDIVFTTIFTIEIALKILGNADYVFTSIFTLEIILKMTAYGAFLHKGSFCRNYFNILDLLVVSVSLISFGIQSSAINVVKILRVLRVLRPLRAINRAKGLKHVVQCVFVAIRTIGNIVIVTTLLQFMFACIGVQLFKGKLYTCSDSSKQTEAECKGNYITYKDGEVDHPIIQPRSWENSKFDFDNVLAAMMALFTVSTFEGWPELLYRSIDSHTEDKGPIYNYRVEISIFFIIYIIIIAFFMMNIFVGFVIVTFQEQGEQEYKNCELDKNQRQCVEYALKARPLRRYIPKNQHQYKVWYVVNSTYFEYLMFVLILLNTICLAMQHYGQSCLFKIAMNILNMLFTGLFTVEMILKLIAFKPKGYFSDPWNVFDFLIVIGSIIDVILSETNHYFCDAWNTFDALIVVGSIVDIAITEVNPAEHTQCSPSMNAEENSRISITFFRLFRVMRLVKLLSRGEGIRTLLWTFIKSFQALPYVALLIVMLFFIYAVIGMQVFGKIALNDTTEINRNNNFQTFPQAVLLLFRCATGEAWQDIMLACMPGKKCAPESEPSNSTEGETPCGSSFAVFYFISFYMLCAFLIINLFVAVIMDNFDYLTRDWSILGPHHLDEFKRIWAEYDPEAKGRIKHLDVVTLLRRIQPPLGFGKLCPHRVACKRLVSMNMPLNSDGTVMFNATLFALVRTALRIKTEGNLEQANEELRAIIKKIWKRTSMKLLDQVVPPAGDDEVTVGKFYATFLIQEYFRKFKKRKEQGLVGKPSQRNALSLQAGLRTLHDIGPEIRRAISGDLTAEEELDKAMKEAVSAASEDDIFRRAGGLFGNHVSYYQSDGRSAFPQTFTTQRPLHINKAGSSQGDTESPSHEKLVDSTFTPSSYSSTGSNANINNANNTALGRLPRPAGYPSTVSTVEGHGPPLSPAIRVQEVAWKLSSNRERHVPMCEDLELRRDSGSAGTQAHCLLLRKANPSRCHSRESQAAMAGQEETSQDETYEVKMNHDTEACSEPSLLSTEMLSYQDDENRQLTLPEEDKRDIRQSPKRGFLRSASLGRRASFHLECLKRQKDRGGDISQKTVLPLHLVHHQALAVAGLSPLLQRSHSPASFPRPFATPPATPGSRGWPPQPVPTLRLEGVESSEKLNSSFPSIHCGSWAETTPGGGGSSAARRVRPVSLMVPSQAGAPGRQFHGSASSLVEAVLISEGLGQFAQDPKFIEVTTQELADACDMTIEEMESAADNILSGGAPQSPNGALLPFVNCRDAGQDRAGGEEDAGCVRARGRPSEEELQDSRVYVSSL

Row | SMILES | IC50 [1] | EC50 [2] | IC50 [3] | IC50 [4] | IC50 [5]
1 | Cc1nnc2sc(C(=O)NCc3ccc(S(=O)(=O)C(F)F)cc3)c(N)c2c1C | 5.7 µM | 0.0178 µM | – | – | –
2 | Cc1nnc2sc(C(=O)NCc3ccc(S(F)(F)(F)(F)F)cc3)c(N)c2c1C | – | 0.0302 µM | 2.1 µM | 6.5 µM | –
3 | Cc1nnc2sc(C(=O)NCc3ccc(S(=O)(=O)C(F)(F)F)cc3)c(N)c2c1C | – | – | – | – | 0.24 µM
